Source: US11292767B2, “Heterocyclic inhibitors of MCT4” (Vettore, LLC, priority 2016, dated 2022)

Tests used:
[1] = Metabolic stability in human liver microsomes (in vitro t1/2); format: in vitro ADME; details: human liver microsomes 0.5 mg/mL, 2 μM compound; for Human microsome % 60 min: % remaining at 60 min
Experimental: (§1) Metabolic Stability Assays The following are assays that may be used to evaluate the metabolic stability of compounds of Formula (I) in human, rat, or mouse microsomes. The assays follow a common procedure recited below. 1. […] Two separated experiments were performed as follows. a) With NADPH: 10 μL of 20 mg/mL liver microsomes and 40 μL of 10 mM NADPH were added to the incubations. […] The final concentration of microsomes was 0.5 mg/mL. 3. The reaction was started with the addition of 4 μL of 200 μM control compound or test compound solutions. Verapamil was used as positive control in this study. The final concentration of test compound or control compound was 2 μM. 4. Aliquots of 50 μL were taken from the reaction solution at 0, 15, 30, 45 and 60 min. […] Samples were centrifuged at 3,220 g for 40 minutes. A 90 μL aliquot of the supernatant was mixed with 90 μL of ultra-pure H2O and then used for LC-MS/MS analysis. 5. Data analysis. All calculations were carried out using Microsoft Excel. Peak areas were determined from extracted ion chromatograms. The slope value, k, was determined by linear regression of the natural logarithm of the remaining percentage of the parent drug vs. incubation time curve. The in vitro half-life (in vitro t1/2) was determined from the slope value: in vitro t1/2=−(0.693)/k.

[2] = Metabolic stability in rat liver microsomes (in vitro t1/2); format: in vitro ADME; details: rat liver microsomes 0.5 mg/mL, 2 μM compound, % remaining at 60 min
Experimental: as §1

[3] = Metabolic stability in mouse liver microsomes (in vitro t1/2); format: in vitro ADME; details: mouse liver microsomes 0.5 mg/mL, 2 μM compound; for Mouse microsome % 60 min: % remaining at 60 min; for Mouse microsome t1/2, min: in vitro t1/2
Experimental: as §1

[4] = Pharmacokinetic assay in rat (IV 3 mg/kg, PO 10 mg/kg); format: in vivo; details: male, Sprague-Dawley, plasma, read-out: Rat F (%)
Text: Pharmacokinetic Assays in Mouse and Rat
The following are assays that may be used to evaluate the pharmacokinetic properties of Formula (I) in mouse or rat. The assays follow a common procedure recited below.
1. […] For PO (oral gavage), DMSO/PEG400 (10:90). Formulations freshly prepared on the day of dosing or prior to dosing. Storage at room temperature.
2. Test Species: For Mouse: Male CD1 strain, approximately 6-8 weeks in age, approximately 20-30 g. For Rat: Male Sprague-Dawley strain, approximately 6-8 weeks in age, approximately 200-300 g.
3. Dose Level: For IV, 3 mg/kg. For PO, 10 mg/kg.
4. Number of animals: 3 per assay.
5. PK time points: For IV (plasma): 5 min, 15 min, 1, 2, 4, 6, 8, 24 h post dose. For PO (plasma): 15 min, 30 min, 1, 2, 4, 6, 8, 24 h post dose.
6. Blood Sample Collection and Processing. Blood was collected (˜0.2 mL per time point) from jugular vein. Blood of each sample was transferred into plastic micro centrifuge tubes containing anticoagulant of EDTA-K2. Blood samples were centrifuged at 2,000 g for 5 minutes at 4° C. to obtain plasma.
7. Samples Analysis: Plasma samples were analyzed using LC/MS/MS method, and pharmacokinetic parameters (half-life: t1/2; oral bioavailability: F; volume of distribution: Vss).

CFA-induced arthritis [5] = assay: Adjuvant-induced arthritis model in rat: Difference of Weight Bearing test (DWB); format: in vivo; details: SD rat, PO 3 days post CFA, compared to dexamethasone
CFA-induced arthritis [6] = assay: Adjuvant-induced arthritis model in rat: Mechanical Allodynia test (MA); format: in vivo; details: SD rat, PO 3 days post CFA, compared to dexamethasone

SMILES | Human microsome % 60 min [1] [%] | Rat microsome % 60 min [2] [%] | Mouse microsome % 60 min [3] [%] | bioavailability [4] [%] | Difference in Weight Bearing, Minimal Efficacious Dose (CFA-induced arthritis [5]) [mg/kg] | Mechanical Allodynia (Von Frey), Minimal Efficacious Dose (CFA-induced arthritis [6]) [mg/kg] | Mouse microsome t1/2, min [3] | Human microsome t1/2, min ([1]; in vitro t1/2)
COc1cc(OC)cc(-c2cc(COC(C)(C)C(=O)O)nn2Cc2ccccc2Cl)c1 [Example 224, 2-([1-[(2-Chlorophenyl)methyl]-5-(3,5-dimethoxyphenyl)-1H-pyrazol-3-yl]-methoxy)-2-methylpropanoic acid] | 91 | 73 | 98 | 53 | ≤10 | ≤10 | – | –
Cc1ccccc1-n1nc(COC(C)(C)C(=O)O)cc1-c1cccc(OC2CCC2)c1 [Example 161, 2-([5-(3-Cyclobutoxyphenyl)-1-(2-methylphenyl)-1H-pyrazol-3-yl]-methoxy)-2-methylpropanoic acid] | 82 | 80 | 99 | 61 | ≤10 | ≤10 | ∞ | –
COc1cc(OC)cc(-c2cc(COC(C)(C)C(=O)O)nn2-c2ccccc2N2CCC2)c1 [Example 251, 2-((1-(2-(Azelidin-1-yl)phenyl)-5-(3,5-dimethoxyphenyl)-1H-pyrazol-3-yl)methoxy)-2-methylpropanoic acid] | 77 | 83 | 63 | 98 | – | – | – | –
CC(C)COc1ncc(-c2cc(COC(C)(C)C(=O)O)nn2Cc2ccccc2Cl)s1 [Example 132, 2-([1-[(2-Chlorophenyl)methyl]-5-[2-(2-methylpropoxy)-1,3-thiazol-5-yl]-1H-pyrazol-3-yl]methoxy)-2-methylpropanoic acid] | 70 | 70 | 64 | – | – | – | – | –
CC(C)(C)COc1cccc(-c2cc(COC(C)(C)C(=O)O)nn2-c2ccccc2N2CCC2)c1 [Example 155, 2-([1-[2-(Azetidin-1-yl)phenyl]-5-[3-(2,2-dimethylpropoxy)phenyl]-1H-pyrazol-3-yl]methoxy)-2-methylpropanoic acid] | 62 | 70 | 37 | – | – | – | – | –
CC(C)Cc1ncc(-c2cc(COC(C)(C)C(=O)O)nn2Cc2ccccc2Cl)o1 [Example 134, 2-([1-[(2-Chlorophenyl)methyl]-5-[2-(2-methylpropyl)-1,3-oxazol-5-yl]-1H-pyrazol-3-yl]methoxy)-2-methylpropanoic acid] | 80 | 85 | 72 | – | – | – | – | –
CCCn1ncc2ccc(-c3cc(COC(C)(C)C(=O)O)nn3-c3ccccc3N3CCC3)cc21 [Example 246, 2-([1-[2-(Azetidin-1-yl)phenyl]-5-(1-propyl-1H-indazol-6-yl)-1H-pyrazol-3-yl]methoxy)-2-methylpropanoic acid] | 65 | 69 | 81 | 52 | – | – | – | –
CC(C)(OCc1cc(-c2cccc(OC3CCC3)c2)n(-c2ccccc2Cl)n1)C(=O)O [Example 175, 2-([1-(2-Chlorophenyl)-5-(3-cyclo-butoxyphenyl)-1H-pyrazol-3-yl]-methoxy)-2-methylpropanoic acid] | 83 | 87 | 94 | 48 | >10 | >10 | – | –
COc1cc(OC)cc(-c2cc(COC(C)(C)C(=O)O)nn2-c2ccccc2Cl)c1 [Example 179, 2-([1-(2-Chlorophenyl)-5-(3,5-dimethoxyphenyl)-1H-pyrazol-3-yl]-methoxy)-2-methylpropanoic acid] | 93 | 85 | 98 | 76 | ≤10 | ≤10 | ∞ | –
CCOc1cc(OCC)cc(-c2cc(COC(C)(C)C(=O)O)nn2-c2ccccc2Cl)c1 [Example 180, 2-([1-(2-Chlorophenyl)-5-(3,5-diethoxy-phenyl)-1H-pyrazol-3-yl]methoxy)-2-methylpropanoic acid] | 88 | 98 | – | 49 | >10 | >10 | ∞ | –
CC[C@@](C)(OCc1cc(-c2cc(OC)cc(OC)c2)n(-c2ccccc2Cl)n1)C(=O)O [Example 222, (2R)-2-([1-(2-Chlorophenyl)-5-(3,5-dimethoxyphenyl)-1H-pyrazol-3-yl]-methoxy)-2-methylbutanoic acid] | 110 | 90 | 94 | – | – | – | – | ∞
CC[C@@](C)(OCc1cc(-c2cccc(OC)c2)n(Cc2ccccc2Cl)n1)C(=O)O [Example 121, (2R)-2-([1-[(2-chlorophenyl)methyl]-5-(3-methoxyphenyl)-1H-pyrazol-3-yl]methoxy)-2-methylbutanoic Acid] | 82 | 61 | 81 | – | – | – | – | –
COc1cccc(-c2cc(COC(C)(C)C(=O)O)nn2Cc2ccccc2OC(C)C)c1 [Example 140, 2-([5-(3-Methoxyphenyl)-1-[[2-(propan-2-yloxy)phenyl]methyl]-1H-pyrazol-3-yl]methoxy)-2-methylpropanoic acid] | 67 | 48 | 62 | – | – | – | – | –
Cn1ncc2ccc(-c3cc(COC(C)(C)C(=O)O)nn3Cc3ccccc3Cl)cc21 [Example 226, 2-([1-[(2-Chlorophenyl)methyl]-5-(1-methyl-1H-indazol-6-yl)-1H-pyrazol-3-yl]methoxy)-2-methylpropanoic acid] | 95 | 88 | 95 | – | – | – | – | –
Cn1ncc2cccc(-n3nc(COC(C)(C)C(=O)O)cc3-c3cccc(OCC4CCC4)c3)c21 [Example 168, 2-([5-[3-(cyclobutylmethoxy)phenyl]-1-(1-methyl-1H-indazol-7-yl)-1H-pyrazol-3-yl]methoxy)-2-methylpropanoic acid] | 78 | 81 | 81 | – | – | – | – | –
CC(C)(OCc1cc(-c2cccc(OCC3CCC3)c2)n(-c2ccccc2Cl)n1)C(=O)O [Example 178, 2-([1-(2-Chlorophenyl)-5-[3-(Cyclobutylmethoxy)phenyl]-1H-pyrazol-3-yl]methoxy)-2-methylpropanoic acid] | 66 | 72 | 70 | – | – | – | – | –
